Patent US9174951B2, “Glucose transporter inhibitors” (The Ohio State University Research Foundation, priority 2012, dated 2015)
Entries after “also recorded” stand apart in the source; their conditions may differ.

Experiments:
[1] = test system: AsPC1 cells; assay: MTT cell viability assay, AsPC1; format: cell-based; conditions: Homo sapiens, 72 h, 10% FBS
Procedure: (§1) Cell Viability Assay. Cell viability was determined using the 3-(4,5-dimethylthiazol-2-yl)-2,5-diphenyltetrazolium bromide (MTT) assay. Cancer cells were seeded at 5000 cells/well and normal cells were seeded at 8000 cells/well in 96-well plates and incubated in 10% FBS-supplemented medium for 24 h. Cells were then treated with individual agents for 72 h. Drug-containing medium was replaced with medium containing MTT (0.5 mg/mL), followed by incubation at 37° C. for 1 h. After removal of medium, the reduced MTT dye in each well was solubilized in 100 μL of DMSO and absorbance at 570 nm was measured.
(§2) Compound 30 was evaluated for antiproliferative activity in panels of different human cancer cells lines, including those of prostate, breast and pancreatic cancers. In all experiments, cells were treated with a range of concentrations of Compound 30 in the presence of 10% fetal bovine serum (FBS). Cell viability was then determined after 72 h of treatment using the 3-(4,5-dimethylthiazol-2-yl)-2,5-diphenyltetrazolium bromide (MTT) assay. […] It is noteworthy that despite this high antiproliferative potency, normal human prostate epithelial cells (PrECs) were resistant to the cytotoxic effect of Compound 30 even at 10 μM.

[2] = test system: PC-3 cells; assay: MTT cell viability assay, PC-3; format: cell-based; conditions: Homo sapiens, 72 h, 10% FBS
Procedure: as §1, §2

[3] = test system: Cal-51 cells; assay: MTT cell viability assay, Cal-51; format: cell-based; conditions: Homo sapiens, 72 h, 10% FBS
Procedure: as §1, §2

[4] = test system: human mammary epithelial cells (HMECs); assay: MTT cell viability assay, normal mammary epithelial cells; format: cell-based; conditions: 72 h, up to 10 μM
Excerpt: (§3) Cells and Cell Culture. LNCaP prostate cancer cells were obtained from the American Type Culture Collection (Manassas, Va.). Cells were maintained in 10% fetal bovine serum (FBS)-supplemented RPMI 1640 medium (Invitrogen, Carlsbad, Calif.). Normal human mammary epithelial cells (HMEC) and normal human prostate epithelial cells (PrEC) were obtained from Lonza (Walkersville, Md.) and were maintained in Mammary Epithelial Cell Growth Medium (MEGM) and Prostate Epithelial Cell Growth Medium (PrEGM) (Lonza, Walkersville, Md.), respectively.
as §1

[5] = test system: normal human prostate epithelial cells (PrECs); assay: MTT cell viability assay, normal prostate epithelial cells; format: cell-based; conditions: 72 h, up to 10 μM
Excerpt: as §3, §1

[6] = test system: BxPC3 cells; assay: MTT cell viability assay, BxPC3; format: cell-based; conditions: Homo sapiens, BXPC-3, 72 h, 10% FBS
Procedure: as §1, §2

[7] = test system: MDA-MB-231 cells; assay: MTT cell viability assay, MDA-MB-231; format: cell-based; conditions: Homo sapiens, 72 h, 10% FBS
Procedure: as §1, §2

[8] = test system: PANC1 cell line; assay: MTT cell viability assay, PANC1; format: cell-based; conditions: Homo sapiens, PANC-1, 72 h, 10% FBS, read-out: IC50, viability of PANC1 cells
Procedure: as §1, §2

[9] = test system: DU-145 cells; assay: MTT cell viability assay, DU-145; format: cell-based; conditions: Homo sapiens, 72 h, 10% FBS
Procedure: as §1, §2

[10] = test system: MDAMB-468 cells; assay: MTT cell viability assay, MDAMB-468; format: cell-based; conditions: Homo sapiens, MDA-MB-468, 72 h, 10% FBS
Procedure: as §1, §2

[11] = test system: MCF-7 cells; assay: MTT cell viability assay, MCF-7; format: cell-based; conditions: Homo sapiens, MCF7, 72 h, 10% FBS
Procedure: as §1, §2

[12] = test system: LNCaP cells; assay: [3H]2-DG glucose uptake assay in LNCaP cells; format: cell-based, human
Procedure: Screening of the focused compound library to identify lead glucose uptake inhibitors.
Glucose Uptake Assay. LNCaP cells were seeded in six-well plates (3×10^5 cells/well) for 24 h. […] The cells were lysed in […] lysis buffer (10 mM Tris-HCl pH 8.0, 0.1% SDS) and aliquots were taken for measurement of radioactivity using a scintillation counter (Beckman LS6500).

[13] = test system: LNCaP cells; assay: Western blot analysis of energy restriction-associated markers in LNCaP cells; format: cell-based, human
Procedure: FIG. 4. (A) Dose-dependent suppressive effects of compounds 1, 2, 4, 5, 28, and 30 on the viability of LNCaP cells by MTT assays in 10% FBS-containing RPMI 1640 medium after 72 h of drug treatment. Column, mean; bars, SD (N=6). (B) Dose-dependent effect of compound 30 on the viability of normal prostate epithelial cells (PrECs) and human mammary epithelial cells (HMECs) after 72 h of treatment. Column, mean; bars, SD (N=6). (C) Western blot analysis of the dose-dependent effects of compound 30 on markers associated with apoptosis (PARP cleavage), β-TrCP-mediated protein degradation (β-TrCP, cyclin D1, Sp1, and AR), AMPK activation (p-AMPK, p-mTOR, and pp706SK), ER stress (GRP78 and GADD153), and epigenetic activation of KLF6.
Plasmid Construction, Transient Transfection and Immunoblotting. The full length GLUT1, GLUT4, and GLUT9 ORF cDNA clones were purchased from Addgene (Cambridge, Mass.) and GLUT3 ORF cDNA was purchased from Origene Technologies (Rockville, Md.). GLUT1, GLUT3, and GLUT9 were subcloned into the HindIII/SalI sites and GLUT4 was subcloned into the EcoRI/SalI sites of pEGFP-N2 expression vector (Clontech, Palo Alto, Calif.). Transfections were performed by electroporation using Nucleofector kit R of the Amaxa Nucleofector system (Lonza, Walkersville, Md.) according to the manufacturer's protocol. Immunoblotting was performed using cells lysates harvested with SDS lysis buffer (1% SDS, 50 mM Tris-HCl pH 8.0, 10 mM EDTA) containing 1× protease inhibitor cocktail (Sigma) and phosphatase inhibitor and were electrophoresed in 8˜12% SDS polyacrylamide gels and then transferred onto nitrocellulose membranes. After blotting in 5% nonfat dry milk, the membranes were incubated with primary antibodies at 1:1,000 dilution in TBS-Tween 20 overnight at 4° C., and then secondary antibodies conjugated with horseradish peroxidase at 1:5,000 dilution in TBS-Tween 20 for 1 hour at room temperature. Protein bands were visualized on X-ray film using an enhanced chemiluminescence system.

[14] = test system: PANC1-GemR (gemcitabine-resistant subline); assay: MTT cell viability assay, PANC1-GemR; format: cell-based; conditions: Homo sapiens, 72 h, 10% FBS, read-out: IC50, viability of PANC1-GemR cells
Procedure: as §1, §2

IC50 [1]: ~5 µM | IC50 [2]: 1.5 to 1.7 µM | IC50 [6]: ~7.5 µM | IC50 [7]: 1.9 µM | IC50 [8]: ~2.5 µM | IC50 [9]: 1.5 to 1.7 µM | IC50 [10]: 1.5 µM | IC50 [11]: ~0.7 µM | IC50 ([12]; Homo sapiens, LNCaP, Krebs-Ringer phosphate buffer, 37° C., 30 min of drug treatment, read-out: IC50 in blocking [3H]2-DG uptake into LNCaP cells): 2.5 µM | IC50 [14]: ~2.5 µM
Compound: CC(CN1C(=O)S/C(=C\c2ccc(O)c(C(F)(F)F)c2)C1=O)(CC(F)(F)F)CC(F)(F)F [Compound 30, 5-(4-Hydroxy-3-trifluoromethyl-benzylidene)-3-[4,4,4-trifluoro-2-methyl-2-(2,2,2-trifluoro-ethyl)-butyl]-thiazolidine-2,4-dione]
IC50 [3]: 1.7 µM | cytotoxic effect in HMECs [4]: resistant; also recorded: no appreciable cytoxicity; also recorded: no appreciable cytotoxicity | cytotoxic effect in PrECs [5]: resistant; also recorded: no appreciable cytoxicity; also recorded: no appreciable cytotoxicity | inhibition of [3H]2-DG uptake into LNCaP cells (screening, in words) ([12]; each at 5 μM, 30 min of exposure): substantially improved potency relative to compound 5 | AMPK phosphorylation [13]: increases | PARP cleavage (apoptosis) [13]: dose-dependent increase | expression of ER stress markers GRP78 and GADD153 [13]: increased expression | expression of KLF6 [13]: increased the expression | expression of cyclin D1, Sp1 and AR [13]: downregulation | levels of p-mTOR and p-p70S6K [13]: concomitant decreases | β-TrCP expression [13]: dose dependently increased
